Columns and labels:
[1] = 50 mg/kg dosed orally, ref (4); cited from earlier work
HCT116 cells [2] = test: Western blotting of acetylated histones; type: cell-based; conditions: for Accumulation of acetylated histones: HCT116, 1 h, TSA 0.2 μM, others 2 μM (FIG. 1A); for Inhibition of cellular HDACs (H4K5ac, H3K18ac): HCT116, 0.5 μM, 24 h (FIG. 1B)
HCT116 cells [3] = test: H3K18ac after 6 h pulse treatment and drug washout; type: cell-based; conditions: 6 h exposure then washout
HepG2 cells = test: Viability assay, with or without HDAC shRNA; type: cell-based; conditions: HepG2, 96 h (FIG. 4A)
[4] = system: Ad-MLP-Luc reporter in HCT116 cell line; test: Ad-MLP-Luc luciferase reporter activation assay; type: cell-based; conditions: HCT116, compared to Ad-E2-Luc reporter
HDAC1 = HDAC1 (Homo sapiens (Human), UniProt Q13547); test: In vitro HDAC1 inhibition assay of HTS hits (HDAC/II-Glo reagents); type: biochemical
Chain of HDAC1 (Q13547 whole entry): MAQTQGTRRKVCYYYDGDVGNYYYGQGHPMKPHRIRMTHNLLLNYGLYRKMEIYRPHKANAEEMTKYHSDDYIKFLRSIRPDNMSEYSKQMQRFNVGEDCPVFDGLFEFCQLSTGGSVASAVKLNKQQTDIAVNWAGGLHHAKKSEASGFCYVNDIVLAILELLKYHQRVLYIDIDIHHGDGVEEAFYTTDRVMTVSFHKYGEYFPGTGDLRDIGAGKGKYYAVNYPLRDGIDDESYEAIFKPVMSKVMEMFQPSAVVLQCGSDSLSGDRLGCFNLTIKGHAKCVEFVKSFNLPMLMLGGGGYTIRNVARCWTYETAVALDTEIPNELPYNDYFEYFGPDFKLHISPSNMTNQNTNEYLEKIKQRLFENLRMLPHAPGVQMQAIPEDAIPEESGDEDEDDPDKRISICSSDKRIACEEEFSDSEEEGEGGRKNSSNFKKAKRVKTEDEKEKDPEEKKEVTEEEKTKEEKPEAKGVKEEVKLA

HCT116 and A549 cells = test: Western blotting of acetylated non-histone proteins; type: cell-based; conditions: for α-tubulin acetylation: 1 h, TSA 0.2 μM, UF010 2 μM
MDA-MB-231 cells [5] = test: Microarray gene expression profiling with Ingenuity Pathway Analysis; type: cell-based; conditions: 1 μM, 24 h
MDA-MB-231 cells [6] = test: Quantitative real-time PCR of CDKN1A (p21); type: cell-based
MDA-MB-231 cells [7] = conditions: UF010 at 1 μM
MDA-MB-231 cells [8] = test: Cell cycle analysis by FACS; type: cell-based; conditions: 24 h, dose-dependent
[9] = system: NCI-60 panel of cancer cell lines; test: NCI-60 panel screen; type: cell-based
[10] = Cell-based assays, comparison with entinostat
Description: Chem Biol. 2015: in press.].

For Nc1ccccc1NC(=O)CCCCCC(=O)Nc1ccccc1 [Compound 4b], the Tmax [1] is listed as 15 min.

In the case of Nc1ccccc1NC(=O)c1ccc(CNC(=O)OCc2cccnc2)cc1 [MS-275, entinostat], the “Accumulation of acetylated histones” value (HCT116 cells [2]) is reported as “only slightly induced acetylation at several sites but failed to induce acetylation at most sites”, the “Persistence of induced histone acetylation (H3K18ac) after drug addition” value (shortened to “Persistence”) (HCT116 cells [3]) is reported as “at least 48 h” and the “Time to induction of histone acetylation (H3K18ac)” value (shortened to “Time to induction”) (HCT116 cells [3]) is reported as 18 h.

For CCCCNNC(=O)c1ccccc1 [RLS2-125, N′-butylbenzohydrazide], the “Growth inhibition for HepG2” value (HepG2 cells) was “little to no growth inhibition”.

In the case of CCCCNNC(=O)c1ccc(N(C)C)cc1 [RLS2-131, N′-butyl-4-(dimethylamino)benzohydrazide], the “Inhibition of cellular HDACs (H4K5ac, H3K18ac)” value (HCT116 cells [2]) is reported as “consistently displayed potent inhibition of cellular HDACs”.

In the case of C/C=C1\NC(=O)[C@H]2CSSCC/C=C/[C@H](CC(=O)N[C@H](C(C)C)C(=O)N2)OC(=O)[C@H](C(C)C)NC1=O [Romidepsin, romidepsin], the Ad-MLP-Luc reporter activity [4] is reported as “dramatically increased in a dose-dependent manner”, the “Persistence” value (HCT116 cells [3]) is reported as “up to 24 h” and the “Time to induction” value (HCT116 cells [3]) is reported as “quickly induced acetylation”.

With O=C(CCCCCCC(=O)Nc1ccccc1)NO [SAHA, vorinostat, reference compound] the “HDAC1 inhibition in vitro, potency” value (HDAC1) was under 10 µM.

In the case of CC(/C=C/C(=O)NO)=C\[C@@H](C)C(=O)c1ccc(N(C)C)cc1 [TSA, Trichostatin A, reference compound], the “Accumulation of acetylated histones” value (HCT116 cells [2]) is reported as “strongly induced acetylation at some sites but weakly at other sites” and the α-tubulin acetylation (HCT116 and A549 cells) is reported as “dramatically increased α-tubulin acetylation”.

For CCCCNNC(=O)c1ccc(Br)cc1 [UF010, 4-bromo-N′-butylbenzohydrazide], the “Predicated activation state, Biological Functions: Cell cycle, Cell cycle progression” value (MDA-MB-231 cells [5]) was “Suppressed”, the “Predicated activation state, Biological Functions: Cell death and survival, Apoptosis” value (MDA-MB-231 cells [5]) was “Activated” and the “Predicated activation state, Biological Functions: Cell death and survival, Cell survival” value (MDA-MB-231 cells [5]) was “Suppressed”. For the same molecule, the “Predicated activation state, Biological Functions: Cell death and survival, Necrosis” value (MDA-MB-231 cells [5]) was “Activated”, the “Predicated activation state, Biological Functions: Cell growth and proliferation, Proliferation of cells” value (MDA-MB-231 cells [5]) was “Suppressed” and the “Predicated activation state, Biological Functions: DNA replication, recombination and repair, Repair of DNA” value (MDA-MB-231 cells [5]) was “Suppressed”. For the same molecule, the “Predicated activation state, Biological Functions: Gene expression, Transcription of RNA” value (MDA-MB-231 cells [5]) was “Suppressed”, the “Predicated activation state, Upstream Regulators: Butyric acid” value (MDA-MB-231 cells [5]) was “Activated” and the “Predicated activation state, Upstream Regulators: Cisplatin” value (MDA-MB-231 cells [5]) was “Activated”. For the same molecule, the “Predicated activation state, Upstream Regulators: ERK1/2” value (MDA-MB-231 cells [5]) was “Activated”, the “Predicated activation state, Upstream Regulators: HDAC1” value (MDA-MB-231 cells [5]) was “Suppressed” and the “Predicated activation state, Upstream Regulators: HDAC2” value (MDA-MB-231 cells [5]) was “Suppressed”. For the same molecule, the “Predicated activation state, Upstream Regulators: KRAS” value (MDA-MB-231 cells [5]) was “Suppressed”, the “Predicated activation state, Upstream Regulators: MYCN” value (MDA-MB-231 cells [5]) was “Suppressed” and the “Predicated activation state, Upstream Regulators: Myc” value (MDA-MB-231 cells [5]) was “Suppressed”. For the same molecule, the “Predicated activation state, Upstream Regulators: Rb1” value (MDA-MB-231 cells [5]) was “Activated”, the “Predicated activation state, Upstream Regulators: Romidepsin” value (MDA-MB-231 cells [5]) was “Activated” and the “Predicated activation state, Upstream Regulators: TP53” value (MDA-MB-231 cells [5]) was “Activated”. The “Predicated activation state, Upstream Regulators: Tributyrin (butyrate)” value (MDA-MB-231 cells [5]) was “Activated”, the “Predicated activation state, Upstream Regulators: Trichostatin A” value (MDA-MB-231 cells [5]) was “Activated” and the “Predicated activation state, Upstream Regulators: fulvestrant” value (MDA-MB-231 cells [5]) was “Activated”. For the same molecule, the “Inhibition of cellular HDACs (H4K5ac, H3K18ac)” value (HCT116 cells [2]) was “consistently displayed potent inhibition of cellular HDACs”, the “Accumulation of acetylated histones” value (HCT116 cells [2]) was “consistently induced the accumulation of acetylated histones at all sites examined” and the “Mode of HDAC inhibition (on/off)” value (HCT116 cells [3]) was “fast-on but slow-off inhibitor”. The “Persistence” value (HCT116 cells [3]) was “up to 96 h”, the “Time to induction” value (HCT116 cells [3]) was at most 6 h and the “HDAC1 inhibition in vitro, potency” value (HDAC1) was under 10 µM. The “CDKN1A (p21) expression by qPCR” value (MDA-MB-231 cells [6]) was “activation of CDKNA encoding p21 was also confirmed”, the “Cell migration to the denuded areas” value (MDA-MB-231 cells [7]) was “markedly slowed migration” and the Cell cycle effect (MDA-MB-231 cells [8]) was “mainly blocked G1/S transition”. For the same molecule, the “Inhibition of proliferation, NCI-60 panel” value [9] was “inhibited proliferation of all tested cell lines”, the “Accumulation of acetylated p53” value (HCT116 and A549 cells; 2 μM, after exposure to etoposide 10 μM) was “induced accumulation of acetylated p53” and the p53 stabilization (HCT116 and A549 cells; 2 μM, with or without etoposide treatment) was “notably stabilized p53”. For the same molecule, the α-tubulin acetylation (HCT116 and A549 cells) was “little to no effect” and the “Potency relative to entinostat in cell-based assays” value [10] was “about 5 fold”.
